Experimental data reported in PubChem BioAssay (NCI).
Several values for one entry are separate records, joined by “and”; a condition that tells them apart may be missing. Equal entries are not always repeated.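 Dose response: 5 concentrations. Exposure: 48 h. Format: 96-well plates. Endpoint: linear interpolation; highest concentration if not reached. The concentration for 50% growth inhibition is given as GI50. TGI is the concentration that stops growth completely.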

Tests used:
Assay in all cases: DTP human tumour cell line panel, 48 h
SF-539 CNS = test system: SF-539 CNS
NCI-H23 lung = test system: NCI-H23 lung
COLO 205 colon = test system: COLO 205 colon
SK-OV-3 ovarian = test system: SK-OV-3 ovarian
KM12 colon = test system: KM12 colon
MDA-MB-435 = test system: MDA-MB-435
HCT-15 colon = test system: HCT-15 colon
HOP-92 NSCLC = test system: HOP-92 NSCLC
RXF 393 renal = test system: RXF 393 renal
SW-620 colon = test system: SW-620 colon

SMILES	GI50 (SF-539 CNS)	TGI (SF-539 CNS)	GI50 (NCI-H23 lung)	TGI (NCI-H23 lung)	GI50 (COLO 205 colon)	TGI (COLO 205 colon)	GI50 (SK-OV-3 ovarian)	TGI (SK-OV-3 ovarian)	GI50 (KM12 colon)	TGI (KM12 colon)	GI50 (MDA-MB-435)	TGI (MDA-MB-435)	GI50 (HCT-15 colon)	TGI (HCT-15 colon)	GI50 (HOP-92 NSCLC)	TGI (HOP-92 NSCLC)	GI50 (RXF 393 renal)	TGI (RXF 393 renal)	GI50 (SW-620 colon)	TGI (SW-620 colon)
COc1cc(NS(=O)(=O)c2ccc(-c3cnc(C4CC4)o3)cc2)ccc1F	274 nM	2180 nM	989 nM	21400 nM	506 nM	9570 nM	606 nM	34600 nM	277 nM	18100 nM	49.8 nM	634 nM	198 nM	17100 nM	579 nM	13100 nM	276 nM	6520 nM	287 nM	> 61300 nM
Cc1ccc(C(=O)Nc2ccc(CN3CCN(C)CC3)c(C(F)(F)F)c2)cc1C#Cc1cnc(N)c2ccccc12	729 nM	1410 nM	799 nM	1760 nM	655 nM	1620 nM	684 nM	7900 nM	377 nM	1080 nM	214 nM	835 nM	142 nM	849 nM	506 nM	2080 nM	285 nM	1060 nM	410 nM	1140 nM
CC[CH2][Sn]([Cl])([Cl])[CH2]CC.Oc1ccccc1C=NCCN=Cc1ccccc1O	10500 nM	24200 nM	6620 nM	20500 nM	2970 nM	10100 nM	17200 nM	35100 nM	12700 nM	25900 nM	7300 nM	24700 nM	9630 nM	24800 nM	2090 nM	8800 nM	2410 nM	8110 nM	1800 nM	3820 nM
COC(=O)[C@H](Cc1c[nH]c2ccccc12)NC(=O)[C@@H](OC)[C@@H]1Cc2cc3cc(OC4CC(OC5CC(O)C(O)C(C)O5)C(O)C(C)O4)c(C)c(O)c3c(O)c2C(=O)[C@H]1OC1CC(OC2CC(OC3CC(C)(O)C(O)C(C)O3)C(O)C(C)O2)C(O)C(C)O1 (some centres undefined)	5.46 nM	24.4 nM	6.14 nM	50.6 nM	3.66 nM	8.82 nM	11.6 nM	> 16500 nM	5.58 nM	1050 nM	7.84 nM	39.4 nM	441 nM	> 16500 nM	3.9 nM	33.3 nM	8.33 nM	24.3 nM	8.63 nM	
C=C[C@H]1C[C@@H]2C[C@@H]3[C@H]4C/C=C\C(=O)NCCCC5NC(=O)C(=C(O)/C=C/[C@@H]4CC(=O)[C@H]3[C@@H]2[C@H]1C)C5=O (some centres undefined)	248 nM	666 nM	627 nM	1470 nM	1780 nM	3210 nM	242 nM	606 nM	1740 nM	3330 nM	203 nM	408 nM	294 nM	949 nM	218 nM	539 nM	165 nM	308 nM	1660 nM	3130 nM
COc1ccccc1Cn1cc2c(c1-c1ccccc1)CCc1cnoc1-2	2570 nM		3360 nM	74000 nM	2560 nM	7620 nM	3500 nM	> 100000 nM	1760 nM	> 100000 nM	279 nM	1440 nM	1710 nM	> 100000 nM	1360 nM	9420 nM	2570 nM	> 100000 nM	1830 nM	> 100000 nM
CCN(CC)CCCC(C)Nc1cnc(C(=O)Nc2cccc3ccc(OC)nc23)cn1 (centres undefined)	1790 nM	3210 nM	2440 nM	5630 nM	1770 nM	3460 nM	15000 nM	28400 nM	3170 nM	11700 nM	1770 nM	3240 nM	1950 nM	4310 nM	6930 nM	21900 nM	1250 nM	2860 nM	1780 nM	3430 nM
CSc1nc2cc(S(=O)(=O)N3CCCCC3)ccc2s1		> 100000 nM		> 100000 nM		> 100000 nM		> 100000 nM		> 100000 nM		> 100000 nM		> 100000 nM		> 100000 nM		> 100000 nM		> 100000 nM
COc1ccc(/C=C\c2cc(OC)c(OC)c(OC)c2)cc1OC(=O)NCCN(C)C		3.28 nM		4.31 nM	187 nM	4690 nM			< 0.1 nM			< 0.1 nM				0.65 nM and < 39.3 nM		< 0.1 nM		
N#Cc1cccc(NC(=O)c2cc(-c3ccc(F)cc3F)ccc2O)c1	3070 nM	10500 nM	1430 nM	4350 nM	10900 nM	28200 nM			3000 nM	10800 nM	2380 nM	9320 nM	2740 nM	11400 nM	294 nM	2430 nM	2690 nM	7630 nM	3020 nM	22300 nM
